{"source": "ChEMBL document CHEMBL1933009", "about": "“SAR studies on the central phenyl ring of substituted biphenyl oxazolidinone-potent CETP inhibitors” (Bioorg Med Chem Lett, 2012)", "key": {"[1]": {"biological_target": "T1, Cholesteryl ester transfer protein (Homo sapiens, UniProt P11597)", "T1 sequence (P11597 whole entry)": "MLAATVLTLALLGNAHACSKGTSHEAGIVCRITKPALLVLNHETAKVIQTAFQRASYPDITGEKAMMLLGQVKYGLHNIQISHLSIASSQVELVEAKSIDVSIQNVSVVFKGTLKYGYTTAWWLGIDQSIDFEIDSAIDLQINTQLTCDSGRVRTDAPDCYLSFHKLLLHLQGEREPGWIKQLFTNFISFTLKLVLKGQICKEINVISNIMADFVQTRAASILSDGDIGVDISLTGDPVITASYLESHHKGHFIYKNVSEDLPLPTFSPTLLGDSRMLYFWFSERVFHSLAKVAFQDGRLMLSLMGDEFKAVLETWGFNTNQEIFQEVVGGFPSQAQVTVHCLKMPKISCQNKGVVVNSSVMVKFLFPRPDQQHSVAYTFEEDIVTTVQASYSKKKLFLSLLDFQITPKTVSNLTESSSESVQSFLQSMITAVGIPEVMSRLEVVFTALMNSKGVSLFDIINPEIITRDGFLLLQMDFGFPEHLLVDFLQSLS", "test": "Inhibition of CETP-mediated neutral lipid transfer by fluorometric analysis"}, "[2]": {"system": "Mus musculus", "test": "Cardioprotective activity in transgenic B6 mouse expressing cynomolgus monkey CETP assessed as increase in HDL-cholesterol level at 10 mg/kg, po BID measured after 24 hrs of first dose", "format": "functional"}}}
{"smiles": "COc1cc(F)c(C(C)C)cc1-c1ccccc1CN1C(=O)O[C@H](c2cc(C(F)(F)F)cc(C(F)(F)F)c2)[C@@H]1C", "values": [{"measurement": "IC50", "setting": "[1]", "result": 31.2, "unit": "nM"}]}
{"smiles": "COc1cc(F)c(C(C)C)cc1-c1ccc(F)cc1CN1C(=O)O[C@H](c2cc(C(F)(F)F)cc(C(F)(F)F)c2)[C@@H]1C", "values": [{"measurement": "IC50", "setting": "[1]", "result": 25, "unit": "nM"}, {"measurement": "Activity", "setting": "[2]", "result": 8, "unit": "mg/dL"}]}
{"smiles": "COc1cc(F)c(C(C)C)cc1-c1ccc(Cl)cc1CN1C(=O)O[C@H](c2cc(C(F)(F)F)cc(C(F)(F)F)c2)[C@@H]1C", "values": [{"measurement": "IC50", "setting": "[1]", "result": 16.5, "unit": "nM"}, {"measurement": "Activity", "setting": "[2]", "result": 12.7, "unit": "mg/dL"}]}
{"smiles": "COc1cc(F)c(C(C)C)cc1-c1ccc(Br)cc1CN1C(=O)O[C@H](c2cc(C(F)(F)F)cc(C(F)(F)F)c2)[C@@H]1C", "values": [{"measurement": "IC50", "setting": "[1]", "result": 19.8, "unit": "nM"}, {"measurement": "Activity", "setting": "[2]", "result": 23, "unit": "mg/dL"}]}
{"smiles": "COc1cc(F)c(C(C)C)cc1-c1ccc(I)cc1CN1C(=O)O[C@H](c2cc(C(F)(F)F)cc(C(F)(F)F)c2)[C@@H]1C", "values": [{"measurement": "IC50", "setting": "[1]", "result": 23.5, "unit": "nM"}]}
{"smiles": "COc1cc(F)c(C(C)C)cc1-c1ccc(C#N)cc1CN1C(=O)O[C@H](c2cc(C(F)(F)F)cc(C(F)(F)F)c2)[C@@H]1C", "values": [{"measurement": "IC50", "setting": "[1]", "result": 23.3, "unit": "nM"}, {"measurement": "Activity", "setting": "[2]", "result": 14.8, "unit": "mg/dL"}]}
{"smiles": "COc1cc(F)c(C(C)C)cc1-c1ccc([N+](=O)[O-])cc1CN1C(=O)O[C@H](c2cc(C(F)(F)F)cc(C(F)(F)F)c2)[C@@H]1C", "values": [{"measurement": "IC50", "setting": "[1]", "result": 13.3, "unit": "nM"}, {"measurement": "Activity", "setting": "[2]", "result": 21.5, "unit": "mg/dL"}]}
{"smiles": "COc1cc(F)c(C(C)C)cc1-c1ccc(N)cc1CN1C(=O)O[C@H](c2cc(C(F)(F)F)cc(C(F)(F)F)c2)[C@@H]1C", "values": [{"measurement": "IC50", "setting": "[1]", "result": 296, "unit": "nM"}]}
{"smiles": "COc1cc(F)c(C(C)C)cc1-c1ccc(C)cc1CN1C(=O)O[C@H](c2cc(C(F)(F)F)cc(C(F)(F)F)c2)[C@@H]1C", "values": [{"measurement": "IC50", "setting": "[1]", "result": 16.7, "unit": "nM"}, {"measurement": "Activity", "setting": "[2]", "result": 13.8, "unit": "mg/dL"}]}
{"smiles": "COc1cc(F)c(C(C)C)cc1-c1ccc(C(C)C)cc1CN1C(=O)O[C@H](c2cc(C(F)(F)F)cc(C(F)(F)F)c2)[C@@H]1C", "values": [{"measurement": "IC50", "setting": "[1]", "result": 54.1, "unit": "nM"}]}
{"smiles": "COc1cc(F)c(C(C)C)cc1-c1ccc(C(C)(C)C)cc1CN1C(=O)O[C@H](c2cc(C(F)(F)F)cc(C(F)(F)F)c2)[C@@H]1C", "values": [{"measurement": "IC50", "setting": "[1]", "result": 24.9, "unit": "nM"}, {"measurement": "Activity", "setting": "[2]", "result": 21, "unit": "mg/dL"}]}
{"smiles": "COc1cc(F)c(C(C)C)cc1-c1ccc(SC)cc1CN1C(=O)O[C@H](c2cc(C(F)(F)F)cc(C(F)(F)F)c2)[C@@H]1C", "values": [{"measurement": "IC50", "setting": "[1]", "result": 16.2, "unit": "nM"}, {"measurement": "Activity", "setting": "[2]", "result": 16.4, "unit": "mg/dL"}]}
{"smiles": "CCCSc1ccc(-c2cc(C(C)C)c(F)cc2OC)c(CN2C(=O)O[C@H](c3cc(C(F)(F)F)cc(C(F)(F)F)c3)[C@@H]2C)c1", "values": [{"measurement": "IC50", "setting": "[1]", "result": 1230, "unit": "nM"}]}
{"smiles": "COc1cc(F)c(C(C)C)cc1-c1ccc(SC(C)C)cc1CN1C(=O)O[C@H](c2cc(C(F)(F)F)cc(C(F)(F)F)c2)[C@@H]1C", "values": [{"measurement": "IC50", "setting": "[1]", "result": 689, "unit": "nM"}]}
{"smiles": "COc1cc(F)c(C(C)C)cc1-c1ccc(SC(F)(F)F)cc1CN1C(=O)O[C@H](c2cc(C(F)(F)F)cc(C(F)(F)F)c2)[C@@H]1C", "values": [{"measurement": "IC50", "setting": "[1]", "result": 19.6, "unit": "nM"}, {"measurement": "Activity", "setting": "[2]", "result": 12.4, "unit": "mg/dL"}]}
{"smiles": "COc1cc(F)c(C(C)C)cc1-c1ccc(C2=CCCC2)cc1CN1C(=O)O[C@H](c2cc(C(F)(F)F)cc(C(F)(F)F)c2)[C@@H]1C", "values": [{"measurement": "IC50", "setting": "[1]", "result": 254, "unit": "nM"}]}
{"smiles": "COc1cc(F)c(C(C)C)cc1-c1ccc(C(C)(C)F)cc1CN1C(=O)O[C@H](c2cc(C(F)(F)F)cc(C(F)(F)F)c2)[C@@H]1C", "values": [{"measurement": "IC50", "setting": "[1]", "result": 18, "unit": "nM"}, {"measurement": "Activity", "setting": "[2]", "result": 23.2, "unit": "mg/dL"}]}
{"smiles": "COc1cc(F)c(C(C)C)cc1-c1ccc(C(C)(C)O)cc1CN1C(=O)O[C@H](c2cc(C(F)(F)F)cc(C(F)(F)F)c2)[C@@H]1C", "values": [{"measurement": "IC50", "setting": "[1]", "result": 71.8, "unit": "nM"}]}
{"smiles": "COc1cc(F)c(C(C)C)cc1-c1ccc(C2CC2)cc1CN1C(=O)O[C@H](c2cc(C(F)(F)F)cc(C(F)(F)F)c2)[C@@H]1C", "values": [{"measurement": "IC50", "setting": "[1]", "result": 24.8, "unit": "nM"}, {"measurement": "Activity", "setting": "[2]", "result": 20.6, "unit": "mg/dL"}]}
{"smiles": "COc1cc(F)c(C(C)C)cc1-c1ccc(S(C)(=O)=O)cc1CN1C(=O)O[C@H](c2cc(C(F)(F)F)cc(C(F)(F)F)c2)[C@@H]1C", "values": [{"measurement": "IC50", "setting": "[1]", "result": 33.5, "unit": "nM"}]}
{"smiles": "CCCS(=O)(=O)c1ccc(-c2cc(C(C)C)c(F)cc2OC)c(CN2C(=O)O[C@H](c3cc(C(F)(F)F)cc(C(F)(F)F)c3)[C@@H]2C)c1", "values": [{"measurement": "IC50", "setting": "[1]", "result": 6930, "unit": "nM"}]}
{"smiles": "COc1cc(F)c(C(C)C)cc1-c1ccc(S(=O)(=O)C(C)C)cc1CN1C(=O)O[C@H](c2cc(C(F)(F)F)cc(C(F)(F)F)c2)[C@@H]1C", "values": [{"measurement": "IC50", "setting": "[1]", "result": 2600, "unit": "nM"}]}
{"smiles": "COc1cc(F)c(C(C)C)cc1-c1ccc(S(=O)(=O)C(F)(F)F)cc1CN1C(=O)O[C@H](c2cc(C(F)(F)F)cc(C(F)(F)F)c2)[C@@H]1C", "values": [{"measurement": "IC50", "setting": "[1]", "result": 27.1, "unit": "nM"}]}
{"smiles": "COc1cc(F)c(C(C)C)cc1-c1ccc(C(F)(F)F)cc1CN1C(=O)O[C@H](c2cc(C(F)(F)F)cc(C(F)(F)F)c2)[C@@H]1C", "note": "[ANACETRAPIB]", "values": [{"measurement": "Activity", "setting": "[2]", "result": 28, "unit": "mg/dL"}]}
